According to patent US9266876B2 (Actelion Pharmaceuticals Ltd., priority 2012, dated 2016):

How the values were obtained:
human CXCR3A = human CXCR3A (Homo sapiens (Human), UniProt P49682); assay: FLIPR assay; assay type: cell-based; conditions: CHO-K1 cells expressing the human CXCR3A coupled to Galpha(16); CXCL10 agonist 20 nM; Fluo-4-AM fluorescence; mean values if determined several times
How it was run: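 CHO-K1 cells expressing CXCR3A coupled to Gα16 were loaded with Fluo-4-AM for 1 h in Hepes-buffered HBSS, pH 7.4, with 5 mM probenecid. Compound dilutions were added on the FLIPR, followed by CXCL10 (added as a 20 nM solution). Baseline-subtracted peak fluorescence was fitted to a single-site curve for IC50.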

CXCR3 = CXCR3 (Homo sapiens (Human), UniProt P49682); assay: Receptor internalization assay; assay type: cell-based; conditions: human whole blood; final CXCL10 concentration 9 nM; 30 min 37° C.; CXCR3 cell surface expression on CD3 positive cells, flow cytometer; read-out: Internalization IC50
How it was run: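 In human whole blood, compounds were incubated with CXCL10 (9 nM final) for 30 min at 37 °C to drive receptor internalization, then stained with anti-CXCR3/CD3 antibodies and lysed of red cells. Flow cytometry measured mean surface CXCR3 fluorescence on CD3+ cells, and IC50 came from single-site dose-response fits.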

human CXCR3A, sequence (P49682 whole entry): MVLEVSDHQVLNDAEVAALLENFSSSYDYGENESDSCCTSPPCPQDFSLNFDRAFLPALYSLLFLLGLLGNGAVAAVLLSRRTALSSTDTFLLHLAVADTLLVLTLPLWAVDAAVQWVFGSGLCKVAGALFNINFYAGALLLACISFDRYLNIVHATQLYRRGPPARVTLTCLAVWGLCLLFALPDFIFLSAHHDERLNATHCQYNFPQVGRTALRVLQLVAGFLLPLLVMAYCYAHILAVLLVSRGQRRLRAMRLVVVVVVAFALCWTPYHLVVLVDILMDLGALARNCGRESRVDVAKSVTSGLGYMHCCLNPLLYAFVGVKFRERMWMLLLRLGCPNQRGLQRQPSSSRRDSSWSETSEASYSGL
CXCR3, sequence (P49682 whole entry): as above

| IC50 (human CXCR3A) [nM] | IC50 (CXCR3) [nM] | SMILES |
| --- | --- | --- |
| 1 | 1080 | C[C@@H]1CN(c2sc(C(F)(F)F)nc2-c2nc3cncnc3[nH]2)CCN1C(=O)Cn1cnc2cccnc21 [Example 171, 2-Imidazo[4,5-b]pyridin-3-yl-1-{(R)-2-methyl-4-[4-(9H-purin-8-yl)-2-trifluoromethyl-thiazol-5-yl]-piperazin-1-yl}-ethanone] |
| 8 | 540 | Cc1nc(CN(C)C)nn1CC(=O)N1CCN(c2sc(C(F)(F)F)nc2-c2nc3ccccc3[nH]2)C[C@H]1C [Example 218, 1-{(R)-4-[4-(1H-Benzoimidazol-2-yl)-2-trifluoromethyl-thiazol-5-yl]-2-methyl-piperazin-1-yl}-2-(3-dimethylaminomethyl-5-methyl-[1,2,4]triazol-1-yl)-ethanone] |
| 0.2 | 363 | C[C@@H]1CN(c2scnc2-c2nc3ccccc3[nH]2)CCN1C(=O)Cn1ccc2ccncc21 [Example 141, 1-{(R)-4-[4-(1H-Benzoimidazol-2-yl)-thiazol-5-yl]-2-methyl-piperazin-1-yl}-2-pyrrolo[2,3-c]pyridin-1-yl-ethanone] |
| 3 | 435 | C[C@@H]1CN(c2sc(C(F)(F)F)nc2-c2nc3cc(C4(O)CC4)ccc3[nH]2)CCN1C(=O)Cn1cnc2cccnc21 [Example 168, 1-((R)-4-{4-[5-(1-Hydroxy-cyclopropyl)-1H-benzoimidazol-2-yl]-2-trifluoromethyl-thiazol-5-yl}-2-methyl-piperazin-1-yl)-2-imidazo[4,5-b]pyridin-3-yl-ethanone] |
| 1 | 499 | Cc1ccc2[nH]c(-c3ncsc3N3CCN(C(=O)Cn4cnc5cccnc54)[C@H](C)C3)nc2c1 [Example 85, 2-Imidazo[4,5-b]pyridin-3-yl-1-{(R)-2-methyl-4-[4-(5-methyl-1H-benzoimidazol-2-yl)-thiazol-5-yl]-piperazin-1-yl}-ethanone] |
| 1 | 98 | CC(=O)c1ccc2[nH]c(-c3nc(C(F)(F)F)sc3N3CCN(C(=O)Cn4cnc5cccnc54)[C@H](C)C3)nc2c1 [Example 165, 1-{(R)-4-[4-(5-Acetyl-1H-benzoimidazol-2-yl)-2-trifluoromethyl-thiazol-5-yl]-2-methyl-piperazin-1-yl}-2-imidazo[4,5-b]pyridin-3-yl-ethanone] |
| 2 | 1760 | C[C@@H]1CN(c2sc(C(F)(F)F)nc2-c2nc3ccccc3[nH]2)CCN1C(=O)Cn1cc(-c2ccccc2)nn1 [Example 189, 1-{(R)-4-[4-(1H-Benzoimidazol-2-yl)-2-trifluoromethyl-thiazol-5-yl]-2-methyl-piperazin-1-yl}-2-(4-phenyl-[1,2,3]triazol-1-yl)-ethanone] |
| 7 | 494 | Cc1nc(C)n(CC(=O)N2CCN(c3sc(C(F)(F)F)nc3-c3nc4c(C(F)(F)F)cccc4[nH]3)C[C@H]2C)n1 [Example 232, 2-(3,5-Dimethyl-[1,2,4]triazol-1-yl)-1-{(R)-2-methyl-4-[2-trifluoromethyl-4-(4-trifluoromethyl-1H-benzoimidazol-2-yl)-thiazol-5-yl]-piperazin-1-yl}-ethanone] |
| 1 | 373 | Cc1ncn(CC(=O)N2CCN(c3sc(C(F)(F)F)nc3-c3nc4ccccc4[nH]3)C[C@H]2C)n1 [Example 213, 1-{(R)-4-[4-(1H-Benzoimidazol-2-yl)-2-trifluoromethyl-thiazol-5-yl]-2-methyl-piperazin-1-yl}-2-(3-methyl-[1,2,4]triazol-1-yl)-ethanone] |
| 1 | 747 | C[C@@H]1CN(c2scnc2-c2nc3ccc(-c4ccccc4)cc3[nH]2)CCN1C(=O)Cn1cnc2cccnc21 [Example 100, 2-Imidazo[4,5-b]pyridin-3-yl-1-{(R)-2-methyl-4-[4-(6-phenyl-1H-benzoimidazol-2-yl)-thiazol-5-yl]-piperazin-1-yl}-ethanone] |
| 0.1 | 111 | Cc1ccnn1CC(=O)N1CCN(c2sc(C(F)(F)F)nc2-c2nc3ccccc3[nH]2)C[C@H]1C [Example 176, 1-{(R)-4-[4-(1H-Benzoimidazol-2-yl)-2-trifluoromethyl-thiazol-5-yl]-2-methyl-piperazin-1-yl}-2-(5-methyl-pyrazol-1-yl)-ethanone] |
| 7 | 1030 | C[C@@H]1CN(c2scnc2-c2nc3ccccc3[nH]2)CCN1C(=O)Cn1c(=O)oc2cccc(F)c21 [Example 153, 3-(2-{(R)-4-[4-(1H-Benzoimidazol-2-yl)-thiazol-5-yl]-2-methyl-piperazin-1-yl}-2-oxo-ethyl)-4-fluoro-3H-benzooxazol-2-one] |
| 3 | 3140 | C[C@@H]1CN(c2scnc2-c2nc3cc(S(C)(=O)=O)ccc3[nH]2)CCN1C(=O)Cn1ccc2cccnc21 [Example 25, 1-{(R)-4-[4-(5-Methanesulfonyl-1H-benzoimidazol-2-yl)-thiazol-5-yl]-2-methyl-piperazin-1-yl}-2-pyrrolo[2,3-b]pyridin-1-yl-ethanone] |
| 45 | 5680 | Cc1ccc(-c2nc(-c3nc4ccccc4[nH]3)c(N3CCN(C(=O)Cn4cnc5cccnc54)[C@H](C)C3)s2)cc1 [Example 150, 1-{(R)-4-[4-(1H-Benzoimidazol-2-yl)-2-p-tolyl-thiazol-5-yl]-2-methyl-piperazin-1-yl}-2-imidazo[4,5-b]pyridin-3-yl-ethanone] |
| 1 | 363 | O=C(Cn1cnc2cccnc21)N1CCN(c2sc(C(F)(F)F)nc2-c2nc3ccccc3[nH]2)CC1 [Example 226, 1-{4-[4-(1H-Benzoimidazol-2-yl)-2-trifluoromethyl-thiazol-5-yl]-piperazin-1-yl}-2-imidazo[4,5-b]pyridin-3-yl-ethanone] |
| 25 | 875 | COC[C@H]1CN(c2scnc2-c2nc3ccccc3[nH]2)CCN1C(=O)Cn1ccc2cccnc21 [Example 19, 1-{(R)-4-[4-(1H-Benzoimidazol-2-yl)-thiazol-5-yl]-2-methoxymethyl-piperazin-1-yl}-2-pyrrolo[2,3-b]pyridin-1-yl-ethanone] |
| 4 | 1660 | O=C(Cn1ccc2cc(F)ccc21)N1CCN(c2scnc2-c2nc3ccccc3[nH]2)CC1 [Example 55, 1-{4-[4-(1 H-Benzoimidazol-2-yl)-thiazol-5-yl]-piperazin-1-yl}-2-(5-fluoro-indol-1-yl)-ethanone] |
| 3 | 6380 | C[C@@H]1CN(c2scnc2-c2nc3ccccc3[nH]2)CCN1C(=O)Cc1n[nH]c2ccccc12 [Example 132, 1-{(R)-4-[4-(1H-Benzoimidazol-2-yl)-thiazol-5-yl]-2-methyl-piperazin-1-yl}-2-(1H-indazol-3-yl)-ethanone] |
| 3 | 1510 | Cn1c(=O)n(CC(=O)N2CCN(c3scnc3-c3nc4cc(Cl)c(Cl)cc4[nH]3)CC2)c2ccccc21 [Example 35, 1-(2-{4-[4-(5,6-Dichloro-1H-benzoimidazol-2-yl)-thiazol-5-yl]-piperazin-1-yl}-2-oxo-ethyl)-3-methyl-1,3-dihydro-benzoimidazol-2-one] |
| 2 | 169 | Cc1nc(C)n(CC(=O)N2CCN(c3sc(C(F)(F)F)nc3-c3nc4cc(OC(F)(F)F)ccc4[nH]3)C[C@H]2C)n1 [Example 241, 2-(3,5-Dimethyl-[1,2,4]triazol-1-yl)-1-{(R)-2-methyl-4-[4-(5-trifluoromethoxy-1H-benzoimidazol-2-yl)-2-trifluoromethyl-thiazol-5-yl]-piperazin-1-yl}-ethanone] |
| 2 | 260 | C[C@@H]1CN(c2sc(C(F)(F)F)nc2-c2nc3ccccc3[nH]2)CCN1C(=O)Cn1cnc2cnccc21 [Example 206, 1-{(R)-4-[4-(1H-Benzoimidazol-2-yl)-2-trifluoromethyl-thiazol-5-yl]-2-methyl-piperazin-1-yl}-2-imidazo[4,5-c]pyridin-1-yl-ethanone] |
| 5 | 1140 | C[C@@H]1CN(c2scnc2-c2nc3ccccc3[nH]2)CCN1C(=O)Cn1cnc2ccncc21 [Example 137, 1-{(R)-4-[4-(1H-Benzoimidazol-2-yl)-thiazol-5-yl]-2-methyl-piperazin-1-yl}-2-imidazo[4,5-c]pyridin-3-yl-ethanone] |
| 15 | 1200 | Cn1c(=O)n(CC(=O)N2CCN(c3scnc3-c3nc4ccccc4[nH]3)CC2)c2ccccc21 [Example 3, 1-(2-{4-[4-(1H-Benzoimidazol-2-yl)-thiazol-5-yl]-piperazin-1-yl}-2-oxo-ethyl)-3-methyl-1,3-dihydro-benzoimidazol-2-one] |
| 1 | 116 | Cc1cc(C)n(CC(=O)N2CCN(c3sc(C(F)(F)F)nc3-c3nc4ccccc4[nH]3)C[C@H]2C)n1 [Example 192, 1-{(R)-4-[4-(1H-Benzoimidazol-2-yl)-2-trifluoromethyl-thiazol-5-yl]-2-methyl-piperazin-1-yl}-2-(3,5-dimethyl-pyrazol-1-yl)-ethanone] |
| 6 | 4180 | C[C@@H]1CN(c2sc(C(F)(F)F)nc2-c2nc3ccccc3[nH]2)CCN1C(=O)Cn1nccc1-c1ccccc1 [Example 204, 1-{(R)-4-[4-(1H-Benzoimidazol-2-yl)-2-trifluoromethyl-thiazol-5-yl]-2-methyl-piperazin-1-yl}-2-(5-phenyl-pyrazol-1-yl)-ethanone] |

| SMILES | IC50 (human CXCR3A) [nM] | IC50 (CXCR3) [nM] |
| --- | --- | --- |
| C[C@@H]1CN(c2sc(CN(C)C)nc2-c2nc3ccccc3[nH]2)CCN1C(=O)Cn1cnc2cccnc21 [Example 223, 1-{(R)-4-[4-(1H-Benzoimidazol-2-yl)-2-dimethylaminomethyl-thiazol-5-yl]-2-methyl-piperazin-1-yl}-2-imidazo[4,5-b]pyridin-3-yl-ethanone] | 27 | 1130 |
